Tested on: symmetric di-methyl arginine in Z-138 cells
Assay: Z-138 Methylation Assay (In Cell Western for symmetric di-methyl arginine and DNA content)
Format: cell-based
Conditions: 96 hours incubation, read-out: ICW EC50
Description: [formula] Where top and bottom are the normally allowed to float, but may be fixed at 100 or 0 respectively in a 3-parameter fit. The Hill Coefficient normally allowed to float but may also be fixed at 1 in a 3-parameter fit. Y is the % inhibition and X is the compound concentration. Z-138 Methylation Assay
Z-138 suspension cells were purchased from ATCC (American Type Culture Collection, Manassas, Va.). RPMI/Glutamax medium, penicillin-streptomycin, heat inactivated fetal bovine serum, and D-PBS were purchased from Life Technologies, Grand Island, N.Y., USA. Odyssey blocking buffer, 800CW goat anti-rabbit IgG (H+L) antibody, and Licor Odyssey infrared scanner were purchased from Licor Biosciences, Lincoln, Nebr., USA. Symmetric di-methyl arginine antibody was purchased from EMD Millipore, Billerica, Mass., USA. 16% Paraformaldehyde was purchased from Electron Microscopy Sciences, Hatfield, Pa., USA.
Z-138 suspension cells were maintained in growth medium (RPMI 1640 supplemented with 10% v/v heat inactivated fetal bovine serum and 100 units/mL penicillin-streptomycin) and cultured at 37° C. under 5% CO2.
Cell Treatment, in Cell Western (ICW) for Detection of Symmetric Di-Methyl Arginine and DNA Content.
Z-138 cells were seeded in assay medium at a concentration of 50,000 cells per mL to a 384-well cell culture plate with 50 μL per well. Compound (100 nL) from 384 well source plates was added directly to 384 well cell plate. Plates were incubated at 37° C., 5% CO2 for 96 hours. After four days of incubation, 40 μL of cells from incubated plates were added to poly-D-lysine coated 384 well culture plates (BD Biosciences 356697). Plates were incubated at room temperature for 30 minutes then incubated at 37° C., 5% CO2 for 5 hours. After the incubation, 40 μL per well of 8% paraformaldehyde in PBS (16% paraformaldahyde was diluted to 8% in PBS) was added to each plate and incubated for 30 minutes. Plates were transferred to a Biotek 405 plate washer and washed 5 times with 100 μL per well of wash buffer (IX PBS with 0.1% Triton X-100 (v/v)). Next 30 μL per well of Odyssey blocking buffer were added to each plate and incubated 1 hour at room temperature. Blocking buffer was removed and 20 μL per well of primary antibody was added (symmetric di-methyl arginine diluted 1:100 in Odyssey buffer with 0.1% Tween 20 (v/v)) and plates were incubated overnight (16 hours) at 4° C. Plates were washed 5 times with 100 μL per well of wash buffer. Next 20 μL per well of secondary antibody was added (1:200 800CW goat anti-rabbit IgG (H+L) antibody, 1:1000 DRAQ5 (Biostatus limited) in Odyssey buffer with 0.1% Tween 20 (v/v)) and incubated for 1 hour at room temperature. The plates were washed 5 times with 100 μL per well wash buffer then 1 time with 100 μL per well of water. Plates were allowed to dry at room temperature then imaged on the Licor Odyssey machine which measures integrated intensity at 700 nm and 800 nm wavelengths. Both 700 and 800 channels were scanned.
First, the ratio for each well was determined by:
Each plate included fourteen control wells of DMSO only treatment (minimum inhibition) as well as fourteen control wells for maximum inhibition treated with 3 μM of a reference compound (Background wells). The average of the ratio values for each control type was calculated and used to determine the percent inhibition for each test well in the plate. Reference compound was serially diluted three-fold in DMSO for a total of nine test concentrations, beginning at 3 μM. Percent inhibition was determined and IC50 curves were generated using triplicate wells per concentration of compound. […]

Compound | EC50 [µM]
N-(2-hydroxy-3-(isoindolin-2-yl)propyl)-2-((4-methyl-3,4-dihydro-2H-benzo[b][1,4]oxazin-5-yl)oxy)acetamide [compound 10] | 0.101 to 1

Same assay, conditions: Homo sapiens, 96 hours incubation, read-out: ICW EC50

Compound | EC50 [µM]
C[C@@H](Oc1cccc2cccnc12)C(=O)NC[C@H](O)CN1Cc2ccccc2C1 [compound 5, (R)—N—((S)-2-hydroxy-3-(isoindolin-2-yl)propyl)-2-(quinolin-8-yloxy)propanamide] | 0.101 to 1
O=C(COc1ccccc1-c1cc[nH]n1)NCC(O)CN1Cc2ccccc2C1 (stereo not shown) [compound 7] | 0.101 to 1
O=C(NCC(O)CN1Cc2ccccc2C1)c1cccc(-c2ccccn2)c1 (stereo not shown) [compound 13, N-(2-hydroxy-3-(isoindolin-2-yl)propyl)-3-(pyridin-2-yl)benzamide] | 1 to 10
CN(C)S(=O)(=O)c1ccccc1OCC(=O)NCC(O)CN1Cc2ccccc2C1 (stereo not shown) [compound 15, 2-(2-(N,N-dimethylsulfamoyl)phenoxy)-N-(2-hydroxy-3-(isoindolin-2-yl)propyl)acetamide] | 0.101 to 1
O=C(COc1cccc2cccnc12)NCC(O)CN1Cc2ccccc2C1 (stereo not shown) [compound 19, N-(2-hydroxy-3-(isoindolin-2-yl)propyl)-2-(quinolin-8-yloxy)acetamide] | 1 to 10
O=C(NC[C@H](O)CN1Cc2ccccc2C1)c1cccc(NC2CCOCC2)c1 [compound 28] | 0.101 to 1
O=C(NC[C@H](O)CN1Cc2ccccc2C1)c1cc(NC2CCOCC2)ncn1 [compound 29] | 0.101 to 1
Cc1nc(NC2COC2)cc(C(=O)NC[C@H](O)CN2Cc3ccccc3C2)n1 [compound 35] | > 1
O=C(NC[C@H](O)CN1Cc2ccccc2C1)c1cc(NC2COC2)nc(C(F)(F)F)n1 [compound 36] | 0.101 to 1
O=C(CCc1nc2ccccc2[nH]1)NCC(O)CN1Cc2ccccc2C1 (stereo not shown) [compound 37] | 0.101 to 1
O=C(NC[C@H](O)CN1Cc2ccccc2C1)c1cc(NC2COC2)nc(N2CCOCC2)n1 [compound 38] | < 0.1
CC(=O)N1CCC(Nc2cc(C(=O)NC[C@H](O)CN3Cc4ccccc4C3)ccn2)CC1 [compound 40] | < 0.1
O=C(NC[C@H](O)CN1CCc2ccccc21)c1cc(NC2COC2)ncn1 [compound 42] | > 1
CC(=O)N1CCC(Nc2cc(C(=O)NC[C@H](O)CN3CCc4ccccc43)ncn2)CC1 [compound 43] | > 1
CC(=O)N1CCC(Nc2cc(C(=O)NC[C@H](O)CN3CCc4ccccc43)ccn2)CC1 [compound 44] | > 1
O=C(NC[C@H](O)CN1CCCCc2ccccc21)c1cc(NC2COC2)ncn1 [compound 45] | > 1
CC(=O)N1CC(Nc2cc(C(=O)NC[C@H](O)CN3CCCCc4ccccc43)ncn2)C1 [compound 46] | > 1
CC(=O)N1CCC(Nc2cc(C(=O)NC[C@H](O)CN3CCCCc4ccccc43)ncn2)CC1 [compound 47] | > 1
O=C(NC[C@H](O)CN1CCCc2ccccc2C1)c1cc(NC2COC2)ncn1 [compound 48] | > 1
CC(=O)N1CC(Nc2cc(C(=O)NC[C@H](O)CN3CCCc4ccccc4C3)ncn2)C1 [compound 49] | > 1
CC(=O)N1CCC(Nc2cc(C(=O)NC[C@H](O)CN3CCCc4ccccc4C3)ncn2)CC1 [compound 50] | > 1

Source: patent publication US10118918B2, “PRMT5 inhibitors and uses thereof” (Epizyme, Inc., priority 2012, dated 2018)
